Reference: patent EP0703239A1, “Aminomethylphosphonic and aminomethylphosphinic acids derivatives and their use in the treatment of degenerative articular diseases” (priority 1994, dated 1996)
Read-outs that look alike come from different tables or passages of the source.

What was measured:
Rattenlebermikrosomen = experiment: Inhibition of microsomal lipid peroxidation (malondialdehyde/thiobarbituric acid); assay type: biochemical, Ratte; conditions: rat liver microsomes, FeSO₄ start, 10 min 37°C; read-out: IC50 Mikrosomale Lipidperoxidation
Description: 4. Hemmung der Mikrosomalen Lipidperoxidation […]
Alle Schritte werden bei 0°C durchgeführt. Die Leber einer Ratte wird, um alles Hämoglobin zu entfernen, mit 0,9 % NaCl-Lösung gründlich gespült. Die grob zerkleinerte Leber wird dann in 10 mM Tris/HCl pH 7,4; 250 mM Saccharose (10 ml Puffer/g Leber) gepottert. Zunächst wird 5 Minuten bei 600xg zentrifugiert. Der Überstand wird dann 10 min bei 12000xg zentrifugiert und wird mit festem CaCl₂ (117,6 mg/100 ml) auf eine Konzentration von 8 mM eingestellt. Durch Zentrifugieren bei 25000 xg (15 min) wird ein Mikrosomenniederschlag gewonnen. Dieser Niederschlag wird im gleichen Volumen Puffer (10 mM Tris/HCl pH 7,4; 150 mM KCl) rehomogenisiert und erneut 15 min bei 25000 xg zentrifugiert.
Ein Testansatz besteht aus 20 µl Mikrosomen (100 mg/ml), vgl. oben, gelöst in Puffer (250 mM Tris/HCl pH 6,6, 750 mM KCl), 10 µl 50 mM MgCl₂, 10 µl 200 mM Isocitronensäure, 10 µl 4mM NADP (3,028 mg/ml Wasser), 10 µl 25 mM Niacinamid, 10 µl Isocitratdehydrogenase (1:100 verdünnt) und 20 µl Wasser oder Testsubstanz. Gestartet wird die Reaktion mit 10 µl 0,25 mM FeSO₄. Die Inkubation dauert 10 Minuten und erfolgt bei 37°C. Gestoppt wird mit 500 µl eiskalter 20 %iger Trichloressigsäure. Entstandenes Malondialdehyd wird durch Zugabe von 500 µl 0,67 %iger Thiobarbitursäure und 30 Minuten Inkubation bei 90°C in eine pinkfarbene Verbindung überführt, die bei 532 nm gemessen wird. Die Extinktion im Kontrollansatz ohne Prüfpräparat wird auf 0 % Hemmung gesetzt, während das völlige Verschwinden des Signals 100 % Hemmung bedeutet.

Chondrozyten [1] = experiment: IL-1-induced chondrocytic chondrolysis in chondrocyte agarose culture, 35S-sulfate incorporation; conditions: agarose cell culture with 5 u/ml human rec. IL-1 alpha; factor relative to IL-1 treated control
Chondrozyten [2] = experiment: Stimulation of cartilage matrix (proteoglycan) synthesis in chondrocyte agarose culture, 35S-sulfate incorporation; assay type: cell-based, Rinder; conditions: Chondrocyte, read-out: Stimulationsfaktor der Proteoglykansynthese
From the text: 1. Wirksamkeit in der Synthese-Stimulierung von Knorpel-Matrix, Prüfung in der Chondrozyten-Kultur
Zellen: Den Fußgelenken frisch geschlachteter Rinder werden der hyaline Knorpel entnommen, mit Pronase (Boehringer Mannheim) und Collagenase (Sigma), die native Matrix enzymatisch abgebaut, und die Chondrozyten in 1 %iger "low melting Agarose" in 24er Multiwell-Schalen in einer Zelldichte von 4 x 10⁶ pro well ausplattiert.
Medium: Komplettes Medium enthält HAM's F12 (Biochrom KG, Berlin) und 10 % foetales Kälberserum (Boehringer Mannheim), die Testsubstanz wird in Medium gelöst, üblicherweise in einer Konzentration von 10⁻⁵ M zugegeben und bei jedem Mediumwechsel erneut zugefügt.
Versuchsdurchführung: Die Behandlung erfolgt vom dritten bis zehnten Tag der Primärkultur, am 9. […] Die dissoziative Extraktion der Proteoglykane aus der Agarose-Schicht wird mit 8M Guanidinium-Hydrochlorid und beigefügten Proteinase-Inhibitoren (Sigma) unter Schütteln bei 4° C über 24 h durchgeführt. Der Überstand wird nach Zentrifugation über eine PD 10 ®Sephadex G 25 Säule in freies und inkorporiertes Sulfat getrennt, dessen Aktivität nach Aliquotierung im β-Szintillationscounter gemessen wird.
Auswertung: Der Parameter für die Matrixproduktion der Chondrozyten ist die Menge synthetisierter Proteoglykane, gemessen als Sulfatinkorporation in cpm. Aus vier Wells pro Gruppe wird der Mittelwert errechnet. Dieser wird durch den Mittelwert der unbehandelten Kontrolle dividiert, und ergibt somit einen Stimulationsfaktor, der bei Stimulation der Matrixsynthese größer 1 ist, bei Hemmung derselben durch Substanzwirkung kleiner 1, und bei unveränderter Matrixsynthese gleich 1 ist.
Als Standard wird Diacerein eingesetzt, das unter dem Markennamen "Artodar" von der Firma Proter bzw. […] Tabelle II

[3] = agarose cell culture, test substance usually 10⁻⁵ M, mean sulfate incorporation divided by untreated control (>1 = stimulation)

COP(=O)(OC)C(NCc1ccc2c(c1)OCO2)c1cc(C(C)(C)C)c(O)c(C(C)(C)C)c1 (stereo not drawn) [Beispiel 29]
IC50 (Rattenlebermikrosomen): 0.69 µM | Stimulationsfaktor der Proteoglykansynthese (Chondrozyten [1]): 1,5

CCOP(=O)(OCC)C(Nc1ccc(OC)c(OC)c1)c1cc(C(C)(C)C)c(O)c(C(C)(C)C)c1 (stereo not drawn) [Beispiel 58]
fold induction at 10 µM (Chondrozyten [2]): 2.5 | Stimulationsfaktor der Proteoglykansynthese (Chondrozyten [1]): 1,2

CCOP(=O)(OCC)C(NCc1ccc2c(c1)OCO2)c1cc(C(C)(C)C)c(O)c(C(C)(C)C)c1 (stereo not drawn) [Beispiel 30]
fold induction at 10 µM (Chondrozyten [2]): 1.4 | Stimulationsfaktor der Proteoglykansynthese (Chondrozyten [1]): 1,5

CCOP(=O)(OCC)C(NCc1ccc(N)cc1)c1cc(C(C)(C)C)c(O)c(C(C)(C)C)c1 (stereo not drawn) [Beispiel 34]
IC50 (Rattenlebermikrosomen): 0.7 µM | fold induction at 10 µM (Chondrozyten [2]): 1.2

CCOP(=O)(OCC)C(NCc1ccc(OC)cc1)c1cc(C(C)(C)C)c(O)c(C(C)(C)C)c1 (stereo not drawn) [Beispiel 32]
Stimulationsfaktor der Proteoglykansynthese (Chondrozyten [1]): 1,4

CCCOP(=O)(OCCC)C(NC1CCCCC1)c1cc(C(C)(C)C)c(O)c(C(C)(C)C)c1 (stereo not drawn) [Beispiel 9]
IC50 (Rattenlebermikrosomen): 2.1 µM

CCCCOP(=O)(OCCCC)C(Nc1ccc2ccccc2c1)c1cc(C(C)(C)C)c(O)c(C(C)(C)C)c1 (stereo not drawn) [Beispiel 77]
IC50 (Rattenlebermikrosomen): 8.7 µM | Stimulationsfaktor der Proteoglykansynthese (Chondrozyten [1]): 1,3

CC(C)(C)c1cc(C(Nc2ccccc2)[PH](=O)O)cc(C(C)(C)C)c1O (stereo not drawn) [Beispiel 36]
fold induction at 10 µM (Chondrozyten [2]; [3]): 1.2 | Stimulationsfaktor der Proteoglykansynthese (Chondrozyten [1]): 2,5

CC(C)(C)c1cc(C(Nc2ccc(Cl)cc2)P(=O)(Oc2ccccc2)Oc2ccccc2)cc(C(C)(C)C)c1O (stereo not drawn) [Beispiel 47]
Stimulationsfaktor der Proteoglykansynthese (Chondrozyten [1]): 1,8

CCOP(=O)(O)C(Nc1ccccn1)c1cc(C(C)(C)C)c(O)c(C(C)(C)C)c1 (stereo not drawn) [Beispiel 78]
fold induction at 10 µM (Chondrozyten [2]): 1.4

CCCOP(=O)(OCCC)C(Nc1ccc(Cl)cc1)c1cc(C(C)(C)C)c(O)c(C(C)(C)C)c1 (stereo not drawn) [Beispiel 44]
IC50 (Rattenlebermikrosomen): 1.05 µM | Stimulationsfaktor der Proteoglykansynthese (Chondrozyten [1]): 1,5

CCOP(=O)(OCC)C(Nc1ccccc1Cl)c1cc(C(C)(C)C)c(O)c(C(C)(C)C)c1 (stereo not drawn) [Beispiel 39]
IC50 (Rattenlebermikrosomen): 2.4 µM

CCOP(=O)(OCC)C(NC1CC(C)(C)NC(C)(C)C1)c1cc(C(C)(C)C)c(O)c(C(C)(C)C)c1 (stereo not drawn) [Beispiel 17]
IC50 (Rattenlebermikrosomen): 3.18 µM

CC(C)(C)c1cc(C(Nc2ccc(Cl)cc2)P(=O)(O)O)cc(C(C)(C)C)c1O (stereo not drawn) [Beispiel 4]
IC50 (Rattenlebermikrosomen): 0.71 µM

CCOP(=O)(OCC)C(NC(C)C(=O)OC)c1cc(C(C)(C)C)c(O)c(C(C)(C)C)c1 (stereo not drawn) [Beispiel 19]
Stimulationsfaktor der Proteoglykansynthese (Chondrozyten [1]): 4,3

CCOP(=O)(OCC)C(Nc1ccc2c(c1)CCCC2)c1cc(C(C)(C)C)c(O)c(C(C)(C)C)c1 (stereo not drawn) [Beispiel 75]
IC50 (Rattenlebermikrosomen): 2.9 µM

CCOP(=O)(OCC)C(Nc1ccc2ccccc2c1)c1cc(C(C)(C)C)c(O)c(C(C)(C)C)c1 (stereo not drawn) [Beispiel 76]
IC50 (Rattenlebermikrosomen): 2.05 µM

CCOP(=O)(OCC)C(NC(CC(C)C)C(=O)OC)c1cc(C(C)(C)C)c(O)c(C(C)(C)C)c1 (stereo not drawn) [Beispiel 20]
IC50 (Rattenlebermikrosomen): 2.1 µM

CC(C)(C)c1cc(C(Nc2ccc(Cl)cc2)[PH](=O)O)cc(C(C)(C)C)c1O (stereo not drawn) [Beispiel 40]
IC50 (Rattenlebermikrosomen): 0.49 µM | Stimulationsfaktor der Proteoglykansynthese (Chondrozyten [1]): 2,1

CCN(CC)CCNC(c1cc(C(C)(C)C)c(O)c(C(C)(C)C)c1)[PH](=O)O (stereo not drawn) [Beispiel 14]
Stimulationsfaktor der Proteoglykansynthese (Chondrozyten [1]): 1,2

CC(=O)Oc1cccc2c1C(=O)c1c(OC(C)=O)cc(C(=O)O)cc1C2=O [Diacerein, reference compound]
fold induction at 10 µM (Chondrozyten [2]; [3]): 1 | Stimulationsfaktor der Proteoglykansynthese (Chondrozyten [1]): 1,1

CCOP(=O)(OCC)C(Nc1ccc(S(N)(=O)=O)cc1)c1cc(C(C)(C)C)c(O)c(C(C)(C)C)c1 (stereo not drawn) [Beispiel 68]
IC50 (Rattenlebermikrosomen): 2.37 µM | Stimulationsfaktor der Proteoglykansynthese (Chondrozyten [1]): 1,3

CC(C)(C)c1cc(C(NCc2ccccc2)[PH](=O)O)cc(C(C)(C)C)c1O (stereo not drawn) [Beispiel 27]
Stimulationsfaktor der Proteoglykansynthese (Chondrozyten [1]): 1,2

CCOP(=O)(OCC)C(Nc1cc(C(F)(F)F)ccc1F)c1cc(C(C)(C)C)c(O)c(C(C)(C)C)c1 (stereo not drawn) [Beispiel 52]
fold induction at 10 µM (Chondrozyten [2]): 1.7

CCOP(=O)(OCC)C(Nc1ccccc1C(=O)OC)c1cc(C(C)(C)C)c(O)c(C(C)(C)C)c1 (stereo not drawn) [Beispiel 65]
IC50 (Rattenlebermikrosomen): 0.73 µM | fold induction at 10 µM (Chondrozyten [2]): 1.3

CCOP(=O)(OCC)C(NCc1ccc(Cl)cc1)c1cc(C(C)(C)C)c(O)c(C(C)(C)C)c1 (stereo not drawn) [Beispiel 33]
Stimulationsfaktor der Proteoglykansynthese (Chondrozyten [1]): 2,2

CCCCOP(=O)(OCCCC)C(NC1CCCCC1)c1cc(C(C)(C)C)c(O)c(C(C)(C)C)c1 (stereo not drawn) [Beispiel 10]
IC50 (Rattenlebermikrosomen): 9 µM | Stimulationsfaktor der Proteoglykansynthese (Chondrozyten [1]): 1,5

C=CCOP(=O)(OCC=C)C(Nc1ccc(Cl)cc1)c1cc(C(C)(C)C)c(O)c(C(C)(C)C)c1 (stereo not drawn) [Beispiel 46]
IC50 (Rattenlebermikrosomen): 0.86 µM

CCOP(=O)(OCC)C(NCc1ccc(C#N)cc1)c1cc(C(C)(C)C)c(O)c(C(C)(C)C)c1 (stereo not drawn) [Beispiel 35]
Stimulationsfaktor der Proteoglykansynthese (Chondrozyten [1]): 3,9

CCOP(=O)(OCC)C(NC1CCCCC1)c1cc(C(C)(C)C)c(O)c(C(C)(C)C)c1 (stereo not drawn) [Beispiel 8]
IC50 (Rattenlebermikrosomen): 0.73 µM | fold induction at 10 µM (Chondrozyten [2]): 1.2

CCOP(=O)(OCC)C(NC1CCN(Cc2ccccc2)CC1)c1cc(C(C)(C)C)c(O)c(C(C)(C)C)c1 (stereo not drawn) [Beispiel 18]
IC50 (Rattenlebermikrosomen): 2.03 µM

CCOP(=O)(OCC)C(Nc1ccc(C(F)(F)F)cc1)c1cc(C(C)(C)C)c(O)c(C(C)(C)C)c1 (stereo not drawn) [Beispiel 51]
fold induction at 10 µM (Chondrozyten [2]): 1.6

CCOP(=O)(OCC)C(c1cc(C(C)(C)C)c(O)c(C(C)(C)C)c1)N(C)c1ccc(Cl)cc1 (stereo not drawn) [Beispiel 54]
IC50 (Rattenlebermikrosomen): 2.8 µM | Stimulationsfaktor der Proteoglykansynthese (Chondrozyten [1]): 1,4

CC(C)(C)c1cc(C(NCc2ccc3c(c2)OCO3)[PH](=O)O)cc(C(C)(C)C)c1O (stereo not drawn) [Beispiel 28]
Stimulationsfaktor der Proteoglykansynthese (Chondrozyten [1]): 5,5

CCOP(=O)(OCC)C(Nc1ccc(C(=O)OC)cc1)c1cc(C(C)(C)C)c(O)c(C(C)(C)C)c1 (stereo not drawn) [Beispiel 66]
IC50 (Rattenlebermikrosomen): 0.75 µM

COP(=O)(OC)C(Nc1ccc(Cl)cc1)c1cc(C(C)(C)C)c(O)c(C(C)(C)C)c1 (stereo not drawn) [Beispiel 43]
IC50 (Rattenlebermikrosomen): 0.79 µM | Stimulationsfaktor der Proteoglykansynthese (Chondrozyten [1]): 1,4

CC(C)(C)c1cc(C(Nc2ccc(Cl)cc2)P(C)(=O)O)cc(C(C)(C)C)c1O (stereo not drawn) [Beispiel 41]
Stimulationsfaktor der Proteoglykansynthese (Chondrozyten [1]): 3,5

CCOP(=O)(OCC)C(Nc1ccccc1)c1cc(C(C)(C)C)c(O)c(C(C)(C)C)c1 (stereo not drawn) [Beispiel 37]
Stimulationsfaktor der Proteoglykansynthese (Chondrozyten [1]): 1,5

CCCN(CCC)C(c1cc(C(C)(C)C)c(O)c(C(C)(C)C)c1)P(=O)(OCC)OCC (stereo not drawn) [Beispiel 21]
IC50 (Rattenlebermikrosomen): 6.35 µM

CCOP(=O)(OCC)C(NC1CCCCCC1)c1cc(C(C)(C)C)c(O)c(C(C)(C)C)c1 (stereo not drawn) [Beispiel 11]
IC50 (Rattenlebermikrosomen): 0.97 µM

CCOP(=O)(OCC)C(Nc1ccc(Cl)c(Cl)c1)c1cc(C(C)(C)C)c(O)c(C(C)(C)C)c1 (stereo not drawn) [Beispiel 48]
IC50 (Rattenlebermikrosomen): 2.95 µM | Stimulationsfaktor der Proteoglykansynthese (Chondrozyten [1]): 1,7

CCOP(=O)(OCC)C(Nc1ccc(OC)cc1)c1cc(C(C)(C)C)c(O)c(C(C)(C)C)c1 (stereo not drawn) [Beispiel 57]
fold induction at 10 µM (Chondrozyten [2]): 1.5 | Stimulationsfaktor der Proteoglykansynthese (Chondrozyten [1]): 1,4

CCOP(=O)(OCC)C(Nc1ccc(NC(=N)N)cc1)c1cc(C(C)(C)C)c(O)c(C(C)(C)C)c1 (stereo not drawn) [Beispiel 73]
IC50 (Rattenlebermikrosomen): 0.67 µM
